pIC50: −log10 of the molar value. Active and inactive are the calls of the source.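 How the source made its calls: active means maximal inhibition of USP17 at or above 30% in the confirmation dose-response, a value not among the printed readouts; inactive means the rest.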
biological target: Ubiquitin carboxyl-terminal hydrolase 17-like protein 5 (Homo sapiens) (UniProt A8MUK1); experiment: ubiquitin-specific protease 17 DUB inhibitors, concentration-effect assay, cell-free, verification of initial screening actives (AID 1645864); conditions: purified USP17, ubiquitin-rhodamine cleavage fluorescence, 3 h
Sequence (A8MUK1 whole entry, looked up): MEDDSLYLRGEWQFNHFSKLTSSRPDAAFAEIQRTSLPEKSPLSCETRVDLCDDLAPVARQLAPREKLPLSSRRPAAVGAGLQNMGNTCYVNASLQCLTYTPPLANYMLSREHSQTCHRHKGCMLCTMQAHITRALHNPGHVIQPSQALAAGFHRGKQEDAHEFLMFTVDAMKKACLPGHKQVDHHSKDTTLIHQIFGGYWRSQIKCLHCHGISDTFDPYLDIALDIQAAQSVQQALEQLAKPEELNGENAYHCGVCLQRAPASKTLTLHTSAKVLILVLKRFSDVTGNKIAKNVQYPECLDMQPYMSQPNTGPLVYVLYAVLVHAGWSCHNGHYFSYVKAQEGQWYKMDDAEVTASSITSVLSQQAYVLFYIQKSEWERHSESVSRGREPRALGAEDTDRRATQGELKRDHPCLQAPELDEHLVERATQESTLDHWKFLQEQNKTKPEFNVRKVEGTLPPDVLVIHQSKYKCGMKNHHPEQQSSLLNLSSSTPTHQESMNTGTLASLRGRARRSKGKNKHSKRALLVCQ

Compound	pIC50	IC50
CN(C)S(=O)(=O)c1ccc(N2CCCC2)c(C(=O)Nc2ccc(-c3cn4ccsc4n3)cc2)c1		> 50 µM (inactive)
O=C(Nc1cc(Cl)cc(Cl)c1)c1csnn1	4.65	
COc1ccc(C2C(C(=O)Nc3ccccc3OC)=C(C)Nc3nnnn32)cc1Br (stereo unspecified)	4.44	
COc1ccc(OC)c2c(C)cc(N3CCN(S(=O)(=O)c4ccc5c(c4)CCCN5S(C)(=O)=O)CC3)nc12	5.01	
COc1ncccc1CN1CCn2c(Cn3cccn3)cnc2C1C (stereo unspecified)		> 50 µM (inactive)
CCOc1ccc2nc(NC(=O)C3CCN(S(=O)(=O)c4ccc5c(c4)CC(C)N5C(C)=O)CC3)sc2c1 (stereo unspecified)		> 50 µM (inactive)
CC(=O)N1CCc2cc(S(=O)(=O)NCc3ccc(C)cc3)ccc21		> 50 µM (inactive)
COc1ccc2cc1Oc1cc(ccc1OC)C(O)C13SSC4(C(=O)N1C)C(O)C1=COC=CC(OC2=O)C1N4C3=O (stereo unspecified)		> 50 µM (inactive)
Cc1ccc(C)c(NS(=O)(=O)c2cc(-c3cnc(C4CC4)o3)ccc2C)c1	4.37	
CC1(C)OC2=C(C(=O)c3cc(O)cc(O)c3C2=O)c2cc(CO)c(O)cc21	5.24	
CCN(CC)C(=O)c1sc(NC(=O)/C=C/c2c(F)cccc2Cl)c(C#N)c1C	5.64	
COc1ccc(C)cc1NC(=O)Cc1csc(NC(=O)c2ccc(=O)[nH]c2)n1	4.39	
O=C(COc1ccc2c(c1)CCC2)Nc1ccc2c(c1)CCC2	4.72	
O=[N+]([O-])c1ccc(NCC2COc3ccccc3O2)c(Cl)c1 (stereo unspecified)		> 50 µM (inactive)
CN1CCN(C(=O)c2ccn(-c3ccc4ccc(-c5cnn(C)c5)cn34)n2)CC1		> 50 µM (inactive)
CC(C)CC[C@H]1O[C@@H](CC(=O)O)Cc2cc3c(c(O)c21)C(=O)c1sc(=O)n(C)c1C3=O	6.71	

Compound	pIC50	IC50
CC[C@H](C)C[C@H]1CC[C@](O)([C@](C)(O)C(=O)N[C@@H]2C(=O)N3NCCC[C@@H]3C(=O)N(O)[C@@H](C)C(=O)NCC(=O)N3NCCC[C@H]3C(=O)N(O)[C@H](C)C(=O)O[C@H]2C(C)C)O[C@@H]1C	4.87	
Cc1cc(NC(=O)c2nnn(-c3ccccc3Cl)c2C)no1		> 50 µM (inactive)
O=C(NC1CC1)c1ccnn1-c1ccc2ccc(-c3ccncc3)cn12		> 50 µM (inactive)
COc1ccc(OC)c(CCNC(=O)CCC2=NS(=O)(=O)c3ccc(C(F)(F)F)cc3N2)c1	4.57	
O=C(c1ccc2ncccc2c1)N1CCC2(C1)Nc1cccnc1NC2=NC1CCCC1 (stereo unspecified)		> 50 µM (inactive)
O=C1C[C@@H](O)[C@H](O)[C@@]23O[C@@]12C1(Oc2cccc4cccc(c24)O1)[C@@H]1O[C@@H]1[C@@H]3O	4.66	
Cc1ccc(C(=O)NCc2ccc(C(=O)Nc3ccc(C)c(C)c3)o2)cc1	4.62	
CCC/C=C\C#CC/C=C\CCCCCCCC(=O)O	5.62	
CS(=O)(=O)N1CCCc2cc(C(=O)Nc3ccc4c(c3)OCO4)ccc21		> 50 µM (inactive)
Cn1cccc1C(=O)N1CCCC2(C1)Nc1cccnc1NC2=NC1CCCC1 (stereo unspecified)		> 50 µM (inactive)
Cc1cc2c(cc1C)NC(CC(=O)Nc1ccc(O)cc1)C(=O)N2 (stereo unspecified)	4.62	
CC(=O)N1CCCC(c2nc(C)cc(-c3cc(F)ccc3C(=O)O)n2)C1 (stereo unspecified)		> 50 µM (inactive)
CCNc1oc(-c2ccc(S(=O)(=O)N3CCCCC3)cc2)nc1C#N	4.62	
CC(C)N1CC[C@@H]2[C@H](C1)CN2C(=O)Nc1cccc(F)c1		> 50 µM (inactive)
COc1ccc(-c2ccnc(-c3ccc(OCc4cccc(F)c4)cc3)n2)cc1	4.43	
CC(C)=CCC/C(C)=C/Cc1c(O)cc2c(c1O)C(=O)OC2	5.77	

Second part, the molecule after the results:

pIC50	IC50	Compound
4.78		CCC(C)c1ccc(O[C@@H]2O[C@@H]3COC(c4ccccc4)O[C@H]3[C@H](O)[C@H]2NC(C)=O)cc1 (stereo partly specified)
	> 50 µM (inactive)	CCOc1ccc(-n2c(C)cc(/C=C(\C#N)c3nc4ccccc4[nH]3)c2C)cc1
5.24		COc1ccc(Cl)cc1NC(=O)Cn1c(=O)cc(C)c2c(C)nn(-c3ccccc3)c21
	> 50 µM (inactive)	CN(C(=O)c1ccncc1)[C@H]1CC[C@@]2(C)C[C@H](c3ccccc3)C[C@](C)(O2)[C@@H]1O
	> 50 µM (inactive)	COc1ccc(C(C)=O)cc1CC(=O)Nc1nc2ccccc2[nH]1
4.51		COCCCNC(=O)c1ccc(Cn2c(=O)c3ccccc3n(CC(=O)NC3CCCCC3)c2=O)cc1
	> 50 µM (inactive)	CCOC(=O)C1C(c2ccc(Br)cc2)C2(C(=O)c3ccccc3C2=O)C2C=Cc3ccccc3N12 (stereo unspecified)
5.63		CN(C)c1ccc(C2CC(c3c(O)n(C)c(=O)[nH]c3=O)=Nc3ccccc3S2)cc1 (stereo unspecified)
5.83		Cc1ccc(CNC(=O)Cn2cnc3c(cnn3-c3cccc(Cl)c3)c2=O)cc1
4.56		CCCn1cc(C(=O)N2CCC3(CC2)CC2(CO3)Nc3ccccc3-n3cccc32)c(C)n1 (stereo unspecified)
	> 50 µM (inactive)	c1coc(CNc2nc(Nc3cccc4ccccc34)nc3ccccc23)c1
4.72		CC(C)c1cc(NCc2ccccc2)n2nc(-c3cccnc3)nc2n1
5.40		CCOc1ccc(NC(=O)Cn2c(=O)n(CC(=O)NCc3ccc(C)cc3)c(=O)c3sccc32)cc1
	> 50 µM (inactive)	Cn1c(=O)c2c(ncn2CC(=O)NC2CCCc3ccccc32)n(C)c1=O (stereo unspecified)
4.57		COc1ccc(OC)c(NC(=O)CS(=O)(=O)c2cn(CC(=O)N3CCC(C)CC3)c3ccccc23)c1
	> 50 µM (inactive)	CCOc1ccccc1-c1nc(-c2nnn(Cc3ccccc3)c2C)no1
4.41		Cc1ccc2cc(CCNC(=O)c3cccc(Br)c3)c(=O)[nH]c2c1
	> 50 µM (inactive)	CN1C(=O)c2cc(NC(=O)c3ccccc3Cl)ccc2Oc2ccccc21
6.18		Cc1ccccc1NC(=O)Nc1ccccc1OCc1cc(=O)n2cccc(C)c2n1
	> 50 µM (inactive)	CC1=CN2C(=N)/C(=C/c3cn(Cc4ccc(Cl)cc4)c4ccccc34)C(=O)N=C2S1

pIC50	IC50	Compound
	> 50 µM (inactive)	Cc1ccccc1C(=O)Nc1ccc(Cc2ccc(NC(=O)c3ccccc3C)c(O)c2)cc1O
	> 50 µM (inactive)	CC(C)N(C(=O)Cn1c(=O)[nH]c2ccccc21)c1ccccc1
4.54		COc1cc(=O)c(C(=O)Nc2ccc(C#N)cc2)nn1-c1cccc(F)c1
5.45		COCCn1c(=O)[nH]c2cc(C(=O)NCCNc3ccc([N+](=O)[O-])cc3C#N)ccc2c1=O
4.32		N#Cc1cn(CC(=O)N2CCc3ccccc32)c2ccccc12
4.93		Cc1ccc(Cn2c(=O)c3ccccc3n3c(CCC(=O)N4CCN(c5ccccn5)CC4)nnc23)cc1
5.13		Cc1cc(C(=O)NC2(O)C(=O)c3ccccc3C2=O)n(C)n1
4.43		O=C(/C=C/c1ccc(F)cc1)N1CCc2ccccc2C1
	> 50 µM (inactive)	O=S(=O)(c1ccc2c(c1)OCCO2)N(Cc1ccccc1)Cc1nnc(-c2ccccc2)o1
5.57		Cc1ccccc1NC(=O)C(C)n1c(=O)cc(-c2ccccc2)c2c(C)nn(C)c21 (stereo unspecified)
4.61		O=[N+]([O-])c1ccccc1C(c1c[nH]c2ccccc12)c1c[nH]c2ccccc12
	> 50 µM (inactive)	CCC(C(=O)NCc1ccncc1)N(c1cccc(Cl)c1)S(C)(=O)=O (stereo unspecified)
	> 50 µM (inactive)	COc1ccc(CCn2cnc3c4ccccc4n(C)c3c2=O)cc1OC
4.75		COc1ccc(NC(=O)CN2C(=O)c3ccccc3Sc3ccc(C(=O)N4CCCC4)cc32)c(OC)c1
4.49		CCn1cc(-c2nc(-c3ccccn3)no2)c(=O)c2cc(F)ccc21
	> 50 µM (inactive)	CC1CC(=O)N(Cc2ccc([N+](=O)[O-])cc2)c2ccccc2S1 (stereo unspecified)
5.21		Cc1cccc(NC(=O)CSc2ccc(-n3cnc(-c4ccccc4)c3)nn2)c1
	> 50 µM (inactive)	Cc1ccc2c(=O)c3c([nH]c2c1C)CCN(CC(=O)NCc1ccccc1)C3
4.58		CC(C)C(=O)Nc1ccc(N2CCN(Cc3ccc(F)cc3)C2=O)nc1

Reference: PubChem BioAssay AID1645864 (Buhrlage Lab, Dana-Farber Cancer Institute and Novartis …, 2021)
